{"source": "PubChem BioAssay AID2060616", "about": "(Molecular Pharmacology Branch, DTP, NCI, 2025);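 also: spheroids exposed to agents for 7 days before reading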;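 as to viability, T/C: luminescence signal used as a stand-in for viable cells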", "system": "377384-186-R-J1-PDC complex spheroid viability", "assay": "Anticancer human tumor 377384-186-R-J1-PDC patient-derived pancreatic carcinoma cell line growth inhibition [CLK]", "conditions": "for IC50: curve of first compound; for viability, T/C: stronger effect = lower value", "outline": "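Multi-cell-type spheroids combined patient-derived tumor cells with HUVEC endothelial cells and human mesenchymal stem cells. Paired agents were dosed in half-log steps down from about clinical Cmax, or from 10 microM where Cmax was unknown.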", "key": {"[1]": {"conditions": "second compound 0.0316 µM, first compound 0.00316 µM"}, "[2]": {"conditions": "second compound 0.0316 µM, first compound 0.01 µM"}, "[3]": {"conditions": "second compound 0.0316 µM, first compound 0.0316 µM"}, "[4]": {"conditions": "second compound 0.0316 µM, first compound 0.1 µM"}, "[5]": {"conditions": "second compound 0.1 µM, first compound 0.00316 µM"}, "[6]": {"conditions": "second compound 0.1 µM, first compound 0.01 µM"}, "[7]": {"conditions": "second compound 0.1 µM, first compound 0.0316 µM"}, "[8]": {"conditions": "second compound 0.1 µM, first compound 0.1 µM"}, "[9]": {"conditions": "second compound 0.316 µM, first compound 0.00316 µM"}, "[10]": {"conditions": "second compound 0.316 µM, first compound 0.01 µM"}, "[11]": {"conditions": "second compound 0.316 µM, first compound 0.0316 µM"}, "[12]": {"conditions": "second compound 0.316 µM, first compound 0.1 µM"}, "[13]": {"conditions": "second compound 1 µM, first compound 0.00316 µM"}, "[14]": {"conditions": "second compound 1 µM, first compound 0.01 µM"}, "[15]": {"conditions": "second compound 1 µM, first compound 0.0316 µM"}, "[16]": {"conditions": "second compound 1 µM, first compound 0.1 µM"}, "[17]": {"conditions": "second compound 3.16 µM, first compound 0.00316 µM"}, "[18]": {"conditions": "second compound 3.16 µM, first compound 0.01 µM"}, "[19]": {"conditions": "second compound 3.16 µM, first compound 0.0316 µM"}, "[20]": {"conditions": "second compound 3.16 µM, first compound 0.1 µM"}, "[21]": {"conditions": "second compound 10 µM, first compound 0.00316 µM"}, "[22]": {"conditions": "second compound 10 µM, first compound 0.01 µM"}, "[23]": {"conditions": "second compound 10 µM, first compound 0.0316 µM"}, "[24]": {"conditions": "second compound 10 µM, first compound 0.1 µM"}}, "data": [{"smiles": "CCc1c2c(nc3ccc(O)cc13)-c1cc3c(c(=O)n1C2)COC(=O)[C@]3(O)CC", "note": "+ CNC(=O)c1ccc(Nc2nc(OC3CCCC3)c3c(-c4ccc5nc(C)oc5c4)c[nH]c3n2)c(OC)c1", "values": [{"measurement": "IC50", "setting": "second compound 0.0316 µM", "value": "< 3.16", "unit": "nM"}, {"measurement": "IC50", "setting": "second compound 0.1 µM", "value": "< 3.16", "unit": "nM"}, {"measurement": "IC50", "setting": "second compound 0.316 µM", "value": "< 3.16", "unit": "nM"}, {"measurement": "IC50", "setting": "second compound 1 µM", "value": "< 3.16", "unit": "nM"}, {"measurement": "IC50", "setting": "second compound 3.16 µM", "value": "< 3.16", "unit": "nM"}, {"measurement": "IC50", "setting": "second compound 10 µM", "value": "< 3.16", "unit": "nM"}, {"measurement": "viability, T/C", "setting": "[1]", "value": 25.8, "unit": "%"}, {"measurement": "viability, T/C", "setting": "[2]", "value": 11.6, "unit": "%"}, {"measurement": "viability, T/C", "setting": "[3]", "value": 4.72, "unit": "%"}, {"measurement": "viability, T/C", "setting": "[4]", "value": 2.28, "unit": "%"}, {"measurement": "viability, T/C", "setting": "second compound 0.0316 µM, first compound 0.316 µM", "value": 1.46, "unit": "%"}, {"measurement": "viability, T/C", "setting": "second compound 0.0316 µM, first compound 1 µM", "value": 0.55, "unit": "%"}, {"measurement": "viability, T/C", "setting": "[5]", "value": 17.5, "unit": "%"}, {"measurement": "viability, T/C", "setting": "[6]", "value": 9.08, "unit": "%"}, {"measurement": "viability, T/C", "setting": "[7]", "value": 4.28, "unit": "%"}, {"measurement": "viability, T/C", "setting": "[8]", "value": 2.07, "unit": "%"}, {"measurement": "viability, T/C", "setting": "second compound 0.1 µM, first compound 0.316 µM", "value": 1.21, "unit": "%"}, {"measurement": "viability, T/C", "setting": "second compound 0.1 µM, first compound 1 µM", "value": 0.63, "unit": "%"}, {"measurement": "viability, T/C", "setting": "[9]", "value": 10.7, "unit": "%"}, {"measurement": "viability, T/C", "setting": "[10]", "value": 7, "unit": "%"}, {"measurement": "viability, T/C", "setting": "[11]", "value": 3.57, "unit": "%"}, {"measurement": "viability, T/C", "setting": "[12]", "value": 2.54, "unit": "%"}, {"measurement": "viability, T/C", "setting": "second compound 0.316 µM, first compound 0.316 µM", "value": 1.19, "unit": "%"}, {"measurement": "viability, T/C", "setting": "second compound 0.316 µM, first compound 1 µM", "value": 0.53, "unit": "%"}, {"measurement": "viability, T/C", "setting": "[13]", "value": 12.9, "unit": "%"}, {"measurement": "viability, T/C", "setting": "[14]", "value": 8.91, "unit": "%"}, {"measurement": "viability, T/C", "setting": "[15]", "value": 3.7, "unit": "%"}, {"measurement": "viability, T/C", "setting": "[16]", "value": 1.76, "unit": "%"}, {"measurement": "viability, T/C", "setting": "second compound 1 µM, first compound 0.316 µM", "value": 1.06, "unit": "%"}, {"measurement": "viability, T/C", "setting": "second compound 1 µM, first compound 1 µM", "value": 0.66, "unit": "%"}, {"measurement": "viability, T/C", "setting": "[17]", "value": 14.4, "unit": "%"}, {"measurement": "viability, T/C", "setting": "[18]", "value": 8.07, "unit": "%"}, {"measurement": "viability, T/C", "setting": "[19]", "value": 3.3, "unit": "%"}, {"measurement": "viability, T/C", "setting": "[20]", "value": 1.8, "unit": "%"}, {"measurement": "viability, T/C", "setting": "second compound 3.16 µM, first compound 0.316 µM", "value": 1.68, "unit": "%"}, {"measurement": "viability, T/C", "setting": "second compound 3.16 µM, first compound 1 µM", "value": 0.58, "unit": "%"}, {"measurement": "viability, T/C", "setting": "[21]", "value": 13.4, "unit": "%"}, {"measurement": "viability, T/C", "setting": "[22]", "value": 8.53, "unit": "%"}, {"measurement": "viability, T/C", "setting": "[23]", "value": 3.76, "unit": "%"}, {"measurement": "viability, T/C", "setting": "[24]", "value": 1.55, "unit": "%"}, {"measurement": "viability, T/C", "setting": "second compound 10 µM, first compound 0.316 µM", "value": 0.98, "unit": "%"}, {"measurement": "viability, T/C", "setting": "second compound 10 µM, first compound 1 µM", "value": 0.79, "unit": "%"}]}, {"smiles": "Cn1ncnc1[C@H]1c2n[nH]c(=O)c3cc(F)cc(c23)N[C@@H]1c1ccc(F)cc1", "note": "+ CNC(=O)c1ccc(Nc2nc(OC3CCCC3)c3c(-c4ccc5nc(C)oc5c4)c[nH]c3n2)c(OC)c1", "values": [{"measurement": "IC50", "setting": "second compound 0.0316 µM", "value": "> 100", "unit": "nM"}, {"measurement": "IC50", "setting": "second compound 0.1 µM", "value": "< 0.316", "unit": "nM"}, {"measurement": "IC50", "setting": "second compound 0.316 µM", "value": "< 0.316", "unit": "nM"}, {"measurement": "IC50", "setting": "second compound 1 µM", "value": "< 0.316", "unit": "nM"}, {"measurement": "IC50", "setting": "second compound 3.16 µM", "value": "< 0.316", "unit": "nM"}, {"measurement": "IC50", "setting": "second compound 10 µM", "value": "< 0.316", "unit": "nM"}, {"measurement": "viability, T/C", "setting": "second compound 0.0316 µM, first compound 0.000316 µM", "value": 91.7, "unit": "%"}, {"measurement": "viability, T/C", "setting": "second compound 0.0316 µM, first compound 0.001 µM", "value": 87.6, "unit": "%"}, {"measurement": "viability, T/C", "setting": "[1]", "value": 61.8, "unit": "%"}, {"measurement": "viability, T/C", "setting": "[2]", "value": 56.3, "unit": "%"}, {"measurement": "viability, T/C", "setting": "[3]", "value": 53.6, "unit": "%"}, {"measurement": "viability, T/C", "setting": "[4]", "value": 48.8, "unit": "%"}, {"measurement": "viability, T/C", "setting": "second compound 0.1 µM, first compound 0.000316 µM", "value": 48.7, "unit": "%"}, {"measurement": "viability, T/C", "setting": "second compound 0.1 µM, first compound 0.001 µM", "value": 42.7, "unit": "%"}, {"measurement": "viability, T/C", "setting": "[5]", "value": 36.5, "unit": "%"}, {"measurement": "viability, T/C", "setting": "[6]", "value": 39, "unit": "%"}, {"measurement": "viability, T/C", "setting": "[7]", "value": 34.3, "unit": "%"}, {"measurement": "viability, T/C", "setting": "[8]", "value": 28.7, "unit": "%"}, {"measurement": "viability, T/C", "setting": "second compound 0.316 µM, first compound 0.000316 µM", "value": 16.8, "unit": "%"}, {"measurement": "viability, T/C", "setting": "second compound 0.316 µM, first compound 0.001 µM", "value": 18.2, "unit": "%"}, {"measurement": "viability, T/C", "setting": "[9]", "value": 19.2, "unit": "%"}, {"measurement": "viability, T/C", "setting": "[10]", "value": 17.4, "unit": "%"}, {"measurement": "viability, T/C", "setting": "[11]", "value": 16, "unit": "%"}, {"measurement": "viability, T/C", "setting": "[12]", "value": 14.9, "unit": "%"}, {"measurement": "viability, T/C", "setting": "second compound 1 µM, first compound 0.000316 µM", "value": 21.5, "unit": "%"}, {"measurement": "viability, T/C", "setting": "second compound 1 µM, first compound 0.001 µM", "value": 18.2, "unit": "%"}, {"measurement": "viability, T/C", "setting": "[13]", "value": 17.6, "unit": "%"}, {"measurement": "viability, T/C", "setting": "[14]", "value": 15.9, "unit": "%"}, {"measurement": "viability, T/C", "setting": "[15]", "value": 15.6, "unit": "%"}, {"measurement": "viability, T/C", "setting": "[16]", "value": 15.6, "unit": "%"}, {"measurement": "viability, T/C", "setting": "second compound 3.16 µM, first compound 0.000316 µM", "value": 16.9, "unit": "%"}, {"measurement": "viability, T/C", "setting": "second compound 3.16 µM, first compound 0.001 µM", "value": 18.6, "unit": "%"}, {"measurement": "viability, T/C", "setting": "[17]", "value": 17.3, "unit": "%"}, {"measurement": "viability, T/C", "setting": "[18]", "value": 20, "unit": "%"}, {"measurement": "viability, T/C", "setting": "[19]", "value": 15.6, "unit": "%"}, {"measurement": "viability, T/C", "setting": "[20]", "value": 15.3, "unit": "%"}, {"measurement": "viability, T/C", "setting": "second compound 10 µM, first compound 0.000316 µM", "value": 18.7, "unit": "%"}, {"measurement": "viability, T/C", "setting": "second compound 10 µM, first compound 0.001 µM", "value": 17.5, "unit": "%"}, {"measurement": "viability, T/C", "setting": "[21]", "value": 20.7, "unit": "%"}, {"measurement": "viability, T/C", "setting": "[22]", "value": 16.4, "unit": "%"}, {"measurement": "viability, T/C", "setting": "[23]", "value": 18.5, "unit": "%"}, {"measurement": "viability, T/C", "setting": "[24]", "value": 14.8, "unit": "%"}]}]}
